Data published in ChEMBL document CHEMBL5252585, “Structure optimization and discovery of novel compound for the treatment of insertion mutations within exon 20 of EGFR and HER2” (Bioorg Med Chem, 2023).
Active and inactive are the calls of the source. The rule behind the calls is not given here.

Assays:
[1] = target: Tyrosine-protein kinase Blk (Homo sapiens) (UniProt P51451); assay: Inhibition of BLK (unknown origin) at 500 nM relative to control
BaF3 [2] = assay: Antiproliferative activity against mouse BAF3 cells harboring FL-EGFR D770-N771 ins NPG mutant after 72 hrs by celltiter-Glo luminescence assay; assay type: functional, cell-based; conditions: BaF3, 72 h
[3] = Mean residence time in Sprague-Dawley rat at 10 mg/kg, po measured upto 8 hrs by LC-MS/MS analysis; assay type: ADME, organism-based; conditions: in vivo
BaF3 [4] = assay: Inhibition of HER2-A775-G776 ins YVMA mutant in mouse BaF3 cells assessed as reduction in HER2 phosphorylation incubated for 24 hrs by Western blot analysis; assay type: cell-based; conditions: dose 1-100 nM
[5] = target: T1, Ephrin type-A receptor 3 (Homo sapiens) (UniProt P29320); assay: Inhibition of EPHA3 (unknown origin) at 500 nM relative to control
T1 sequence (whole entry): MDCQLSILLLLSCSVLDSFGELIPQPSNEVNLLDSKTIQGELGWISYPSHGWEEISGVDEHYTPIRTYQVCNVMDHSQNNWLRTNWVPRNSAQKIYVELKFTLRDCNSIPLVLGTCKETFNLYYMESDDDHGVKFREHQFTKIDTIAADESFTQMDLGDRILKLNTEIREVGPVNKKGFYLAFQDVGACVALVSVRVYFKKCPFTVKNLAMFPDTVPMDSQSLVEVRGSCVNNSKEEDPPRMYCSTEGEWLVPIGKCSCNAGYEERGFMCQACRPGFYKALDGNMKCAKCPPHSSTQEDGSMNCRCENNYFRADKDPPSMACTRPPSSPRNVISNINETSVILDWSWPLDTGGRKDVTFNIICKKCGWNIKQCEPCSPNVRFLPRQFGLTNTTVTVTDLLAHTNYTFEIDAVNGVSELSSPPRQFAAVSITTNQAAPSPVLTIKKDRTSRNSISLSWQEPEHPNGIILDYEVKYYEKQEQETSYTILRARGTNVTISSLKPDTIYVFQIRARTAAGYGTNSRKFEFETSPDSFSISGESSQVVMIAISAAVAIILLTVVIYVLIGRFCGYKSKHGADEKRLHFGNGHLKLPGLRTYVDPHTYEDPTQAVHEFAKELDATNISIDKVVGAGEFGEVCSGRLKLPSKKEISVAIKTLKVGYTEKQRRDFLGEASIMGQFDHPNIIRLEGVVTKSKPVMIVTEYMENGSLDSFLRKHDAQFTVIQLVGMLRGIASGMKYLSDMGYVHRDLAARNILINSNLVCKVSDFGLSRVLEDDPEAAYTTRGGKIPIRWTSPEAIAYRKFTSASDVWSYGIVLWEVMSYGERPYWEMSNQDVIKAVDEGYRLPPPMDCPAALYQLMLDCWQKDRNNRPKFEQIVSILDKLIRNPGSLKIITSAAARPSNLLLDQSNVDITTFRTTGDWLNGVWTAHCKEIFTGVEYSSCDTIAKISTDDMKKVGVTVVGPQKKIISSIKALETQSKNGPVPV

BaF3 [6] = assay: Antitumor activity against mouse BaF3 cells implanted in BALB/c mouse harboring EGFR D770-N771 ins NPG mutant assessed as tumor growth inhibition at 10 mg/kg, po administered once daily for 13 to 14 days; assay type: functional; conditions: time 13-14 day, read-out: TGI
[7] = target: Receptor tyrosine-protein kinase erbB-2 (Homo sapiens, UniProt P04626); conditions: dose 500.0 nM
Description: Inhibition of HER2 (unknown origin) at 500 nM relative to control

[8] = Cmax in Sprague-Dawley rat at 10 mg/kg, iv measured upto 8 hrs by LC-MS/MS analysis; assay type: ADME, organism-based; set-up: dose 10 mg/kg, time < 8 hrs, route iv; conditions: in vivo
[9] = Mean residence time in Sprague-Dawley rat at 10 mg/kg, iv measured upto 8 hrs by LC-MS/MS analysis; assay type: ADME, organism-based; conditions: in vivo
[10] = Clearance in Sprague-Dawley rat at 10 mg/kg, iv measured upto 8 hrs by LC-MS/MS analysis; assay type: ADME, organism-based; conditions: in vivo
BaF3 [11] = assay: Antitumor activity against mouse BaF3 cells implanted in BALB/c mouse harboring EGFR D770-N771 ins NPG mutant assessed as tumor growth inhibition at 20 mg/kg, po administered once daily for 13 to 14 days; assay type: functional; conditions: time 13-14 day, read-out: TGI
[12] = Tmax in Sprague-Dawley rat at 10 mg/kg, iv measured upto 8 hrs by LC-MS/MS analysis; assay type: ADME, organism-based; conditions: in vivo
[13] = Half life in Sprague-Dawley rat at 10 mg/kg, iv measured upto 8 hrs by LC-MS/MS analysis; assay type: ADME, organism-based; conditions: in vivo
[14] = target: Tyrosine-protein kinase BTK (Homo sapiens) (UniProt Q06187); assay: Inhibition of BTK (unknown origin) at 500 nM relative to control
[15] = Clearance in Sprague-Dawley rat at 10 mg/kg, po measured upto 8 hrs by LC-MS/MS analysis; assay type: ADME, organism-based; conditions: in vivo
BaF3 [16] = assay: Antitumor activity against mouse BaF3 cells implanted in BALB/c mouse harboring HER2-A775-G776 ins YVMA mutant assessed as tumor growth inhibition at 10 mg/kg, po administered once daily for 13 to 14 days; assay type: functional; conditions: time 13-14 day, read-out: TGI
[17] = target: T2, Tyrosine-protein kinase Tec (Homo sapiens) (UniProt P42680); assay: Inhibition of TEC (unknown origin) at 500 nM relative to control
T2 sequence (whole entry): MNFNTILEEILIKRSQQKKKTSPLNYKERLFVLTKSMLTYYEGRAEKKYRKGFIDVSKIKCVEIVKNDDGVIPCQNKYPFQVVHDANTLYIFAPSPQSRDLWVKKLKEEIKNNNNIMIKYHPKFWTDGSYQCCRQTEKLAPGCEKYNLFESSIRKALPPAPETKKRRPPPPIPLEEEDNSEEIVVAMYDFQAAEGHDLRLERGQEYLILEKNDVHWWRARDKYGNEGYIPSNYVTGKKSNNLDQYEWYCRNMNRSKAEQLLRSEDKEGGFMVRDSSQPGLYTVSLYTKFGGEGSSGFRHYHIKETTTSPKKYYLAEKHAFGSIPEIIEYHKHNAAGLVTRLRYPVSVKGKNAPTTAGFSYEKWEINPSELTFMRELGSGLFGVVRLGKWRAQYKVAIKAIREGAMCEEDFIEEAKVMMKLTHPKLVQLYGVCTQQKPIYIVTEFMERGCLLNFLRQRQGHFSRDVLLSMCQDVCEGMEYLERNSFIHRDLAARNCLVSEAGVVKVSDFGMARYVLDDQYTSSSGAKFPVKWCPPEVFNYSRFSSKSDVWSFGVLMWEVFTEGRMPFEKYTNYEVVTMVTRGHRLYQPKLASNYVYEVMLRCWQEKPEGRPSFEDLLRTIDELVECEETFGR

[18] = Tmax in Sprague-Dawley rat at 10 mg/kg, po measured upto 8 hrs by LC-MS/MS analysis; assay type: ADME, organism-based; conditions: in vivo
[19] = Inhibition of EGFR L858R/T790M double mutant (unknown origin); set-up: species or system Homo sapiens
BaF3 [20] = assay: Inhibition of EGFR D770-N771 ins NPG mutant in mouse BaF3 cells assessed as reduction in EGFR phosphorylation at less than 1 nM incubated for 24 hrs by Western blot analysis; assay type: cell-based

Sequence of Tyrosine-protein kinase BTK (Homo sapiens) (Q06187 whole entry): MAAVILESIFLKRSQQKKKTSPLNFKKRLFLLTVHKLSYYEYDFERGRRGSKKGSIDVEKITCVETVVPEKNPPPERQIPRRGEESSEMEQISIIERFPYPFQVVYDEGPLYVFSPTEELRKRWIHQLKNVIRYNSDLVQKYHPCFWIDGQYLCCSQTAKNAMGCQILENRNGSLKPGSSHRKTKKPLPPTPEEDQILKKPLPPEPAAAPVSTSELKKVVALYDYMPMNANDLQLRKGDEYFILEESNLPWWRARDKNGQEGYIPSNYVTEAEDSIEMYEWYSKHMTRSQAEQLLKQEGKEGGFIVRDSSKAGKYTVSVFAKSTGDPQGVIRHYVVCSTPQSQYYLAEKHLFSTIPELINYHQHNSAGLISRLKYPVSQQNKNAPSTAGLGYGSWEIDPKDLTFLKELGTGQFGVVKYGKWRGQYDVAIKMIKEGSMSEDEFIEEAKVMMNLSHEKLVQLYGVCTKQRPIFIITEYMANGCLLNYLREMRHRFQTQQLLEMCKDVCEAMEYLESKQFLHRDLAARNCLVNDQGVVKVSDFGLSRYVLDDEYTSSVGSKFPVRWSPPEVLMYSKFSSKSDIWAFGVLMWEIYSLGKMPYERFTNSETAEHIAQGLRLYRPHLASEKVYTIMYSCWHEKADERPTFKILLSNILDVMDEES
Sequence of Tyrosine-protein kinase Blk (Homo sapiens) (P51451 2-505 limits assumed): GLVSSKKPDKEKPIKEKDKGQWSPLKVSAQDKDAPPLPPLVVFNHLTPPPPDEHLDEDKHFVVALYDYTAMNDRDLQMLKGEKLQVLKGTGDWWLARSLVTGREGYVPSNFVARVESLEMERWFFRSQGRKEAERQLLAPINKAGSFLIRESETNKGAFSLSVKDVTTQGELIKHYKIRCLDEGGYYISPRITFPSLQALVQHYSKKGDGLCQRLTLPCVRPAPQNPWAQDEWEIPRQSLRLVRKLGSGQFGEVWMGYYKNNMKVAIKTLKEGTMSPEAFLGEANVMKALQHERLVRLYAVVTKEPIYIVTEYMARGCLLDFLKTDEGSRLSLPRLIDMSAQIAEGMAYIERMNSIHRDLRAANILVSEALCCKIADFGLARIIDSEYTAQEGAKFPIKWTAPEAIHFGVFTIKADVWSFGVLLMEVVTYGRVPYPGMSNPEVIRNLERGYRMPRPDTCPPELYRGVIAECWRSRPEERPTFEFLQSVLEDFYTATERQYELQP
Sequence of Receptor tyrosine-protein kinase erbB-2 (P04626 whole entry): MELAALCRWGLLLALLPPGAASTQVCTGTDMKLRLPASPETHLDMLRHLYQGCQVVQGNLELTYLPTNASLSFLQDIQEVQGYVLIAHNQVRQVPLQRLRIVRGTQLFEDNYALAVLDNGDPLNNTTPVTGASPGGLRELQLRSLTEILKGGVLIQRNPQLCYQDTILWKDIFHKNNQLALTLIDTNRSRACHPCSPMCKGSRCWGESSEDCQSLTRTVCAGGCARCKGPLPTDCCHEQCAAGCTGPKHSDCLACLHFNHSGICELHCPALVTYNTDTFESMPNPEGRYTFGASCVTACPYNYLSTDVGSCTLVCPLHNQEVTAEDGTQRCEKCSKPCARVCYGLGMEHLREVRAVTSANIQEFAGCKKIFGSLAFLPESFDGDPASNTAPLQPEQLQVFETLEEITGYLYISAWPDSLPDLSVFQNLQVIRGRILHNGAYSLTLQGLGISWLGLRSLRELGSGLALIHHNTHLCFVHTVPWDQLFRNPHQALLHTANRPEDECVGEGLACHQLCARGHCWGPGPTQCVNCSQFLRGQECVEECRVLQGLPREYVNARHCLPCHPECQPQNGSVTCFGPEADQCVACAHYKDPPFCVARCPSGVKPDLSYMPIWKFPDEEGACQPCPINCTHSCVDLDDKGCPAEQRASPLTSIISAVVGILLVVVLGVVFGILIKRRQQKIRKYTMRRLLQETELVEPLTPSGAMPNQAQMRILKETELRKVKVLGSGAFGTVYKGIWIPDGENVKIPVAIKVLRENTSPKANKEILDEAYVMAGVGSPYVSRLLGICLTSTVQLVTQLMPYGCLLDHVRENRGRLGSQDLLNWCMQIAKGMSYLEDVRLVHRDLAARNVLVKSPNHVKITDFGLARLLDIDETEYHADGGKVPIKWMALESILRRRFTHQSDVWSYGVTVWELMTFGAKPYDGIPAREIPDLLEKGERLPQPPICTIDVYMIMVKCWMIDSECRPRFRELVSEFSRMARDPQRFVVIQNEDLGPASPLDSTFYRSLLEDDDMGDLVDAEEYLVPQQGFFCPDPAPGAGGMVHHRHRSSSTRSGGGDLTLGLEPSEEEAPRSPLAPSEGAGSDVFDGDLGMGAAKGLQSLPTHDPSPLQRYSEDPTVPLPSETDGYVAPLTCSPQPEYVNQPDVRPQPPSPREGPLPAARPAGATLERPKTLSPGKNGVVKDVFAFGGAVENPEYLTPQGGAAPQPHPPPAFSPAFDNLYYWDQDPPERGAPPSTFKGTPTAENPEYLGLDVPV

C=CC(=O)N1CCC(Oc2cc3c(Nc4cccc(Cl)c4F)ncnc3cc2O[C@H]2CCOC2)CC1
inhibition [1]: > 20% | IC50 (BaF3 [2]): 790 pM | MRT [3]: 3.58 h | inhibition (BaF3 [4]): Dose-Dependent Effect | inhibition [5]: > 20% | inhibition in vivo at 10 mg/kg (BaF3 [6]): 67% | inhibition [7]: 100% | Cmax [8]: 8270 ng/mL | MRT [9]: 1.89 h | clearance [10]: 2.32 mL/min | inhibition in vivo at 20 mg/kg (BaF3 [11]): 83% | Tmax [12]: 4.98 min | half-life [13]: 0.89 h | inhibition [14]: > 20% | CL/F [15]: 2.96 mL/min | inhibition in vivo at 10 mg/kg (BaF3 [16]): 75% | inhibition [17]: > 20% | Tmax [18]: 1.33 h | IC50 [19]: 1070 pM | inhibition (BaF3 [20]): Active
